Laboratory results: patent publication US20230365592A1 (Agios Pharmaceuticals, Inc., priority 2022, published 2023)

target: T1, human PAH with the R408W mutation (Homo sapiens, UniProt P00439, R408W); test: Cell Based Phenylalanine Flux Assay; settings: A375 cells expressing R408W PAH; 24 hrs with compound, then 20 µM sepiapterin and 800 µM 13C9,15N-Phenylalanine for 4 hours; 13C-Tyrosine by LC-MS; average where tested multiple times; read-out: AC50;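 also: after compound treatment, cells received sepiapterin plus isotope-labelled Phenylalanine for 4 hours, then labelled Tyrosine in the medium was quantified, 10-point 2-fold dilution series run in duplicate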
T1 construct: expressed in transfected cells
T1 sequence (P00439 1-452 R408W): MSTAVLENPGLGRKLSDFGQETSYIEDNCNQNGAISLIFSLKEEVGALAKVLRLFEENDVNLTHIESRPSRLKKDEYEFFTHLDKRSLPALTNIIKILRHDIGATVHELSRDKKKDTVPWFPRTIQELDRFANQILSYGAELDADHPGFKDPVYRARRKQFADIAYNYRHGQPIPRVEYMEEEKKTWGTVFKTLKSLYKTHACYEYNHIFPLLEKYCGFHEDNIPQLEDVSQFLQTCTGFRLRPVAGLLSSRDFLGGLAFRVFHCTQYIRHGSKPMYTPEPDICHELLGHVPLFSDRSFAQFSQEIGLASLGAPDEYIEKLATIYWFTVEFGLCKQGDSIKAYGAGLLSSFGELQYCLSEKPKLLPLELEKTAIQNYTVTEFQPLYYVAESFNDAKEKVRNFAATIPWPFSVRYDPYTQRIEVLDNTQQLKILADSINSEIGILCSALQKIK
Method: Compounds were resuspended in DMSO, and 2-fold serial dilutions were performed to generate a 10-point dose curve. Compounds were added to plated cells in a total volume of 100 µl, and a final DMSO concentration of 0.5%. Each compound was tested in duplicate. Following compound addition, cells were placed in a 5% CO2, 37° C. tissue culture incubator for 24 hrs. After the incubation period, 20 µM sepiapterin and 800 µM 13C9,15N-Phenylalanine were added. After 4 hours, cell media was removed. An aliquot of 10 µl of cell media was combined with 200 µl of extraction buffer (80% acetonitrile/20% H2O) for each well. Determination of ^13C-Tyrosine concentration was assessed by liquid chromatography mass spectrometry.
Where a compound was tested multiple times, the average value of the tests is reported.

Q: For `Cn1cc(-c2ncc(C(=O)N3CCc4[nH]cnc4C3c3cc4c(F)cccn4n3)o2)cn1` (centres unmarked), which AC50 is on record?
A: 1000 to 5000 nM

Q: With `COCc1ccc2c(C(=O)N3CCc4[nH]cnc4C3c3cc4cccc(Cl)n4n3)cnn2c1` (centres unmarked) as the compound, how does the AC50 read?
A: 1000 to 5000 nM

Q: `CC(C)c1nnc(C(=O)N2CCc3[nH]cnc3C2c2cc3c(C(F)F)cccn3n2)o1` (centres unmarked) was tested. Which AC50 did it give?
A: > 5000 nM

Q: Which AC50 does the source give for `Cc1nc([C@H](C)O)oc1C(=O)N1CCc2[nH]cnc2[C@H]1c1cc2cccc(C)n2n1` (single isomer, unassigned) here?
A: 1000 to 5000 nM

Q: `CC(O)c1nc(C(F)F)c(C(=O)N2CCc3[nH]cnc3C2c2cc3c(Cl)cccn3n2)o1` (centres unmarked) was tested. Which AC50 did it give?
A: 1000 to 5000 nM

Q: `CN(C)c1ccc2c(C(=O)N3CCc4[nH]cnc4C3c3cc4cccc(F)n4n3)cnn2c1` (centres unmarked) was tested. Which AC50 did it give?
A: 1000 to 5000 nM

Q: How did the AC50 turn out when `Cn1cc(-c2nnc(N3CCc4[nH]cnc4[C@H]3c3cc4c(F)cccn4n3)o2)cn1` (single isomer, unassigned) was run?
A: 1000 to 5000 nM

Q: `FC(F)c1cccn2nc(C3c4nc[nH]c4CCN3c3nnc(C4CC(F)(F)C4)o3)cc12` (centres unmarked) was tested. Which AC50 did it give?
A: 1000 to 5000 nM

Q: For `O=C(C1CC1(F)F)N1CCc2[nH]cnc2C1c1cc2ccccn2n1` [4S enantiomer of 5-[(1S)-2,2-difluorocyclopropanecarbonyll-4], which AC50 is on record?
A: 1000 to 5000 nM

Q: For `CN(C)c1ccc2c(C(=O)N3CCc4[nH]cnc4C3c3cc4cccc(C(F)F)n4n3)cnn2c1` (centres unmarked), which AC50 is on record?
A: 1000 to 5000 nM

same assay, conditions: A375 cells expressing human PAH R408W; 24 hrs compound incubation; 13C-Tyrosine by LC-MS; average where tested multiple times; read-out: AC50

Q: How did the AC50 turn out when `CC(C)c1cccn2nc([C@@H]3c4nc[nH]c4CCN3c3nnc(C(C)(F)F)o3)cc12` [Example 2231, (S)-2-(1,1-difluoroethyl)-5-(4-(4-isopropylpyrazolo[1,5-a]pyridin-2-yl)-1,4,6,7-tetrahydro-5H-imidazo[4,5-c]pyridin-5-yl)-1,3,4-oxadiazole] was run?
A: < 500 nM

Q: With `Cc1cccn2nc([C@@H]3c4nc[nH]c4CCN3C(=O)c3cnc(-c4ccccn4)o3)cc12` [Example 1964, (S)-(4-(4-methylpyrazolo[1,5-a]pyridin-2-yl)-1,4,6,7-tetrahydro-5H-imidazo[4,5-c]pyridin-5-yl)(2-(pyridin-2-yl)oxazol-5-yl)methanone] as the compound, how does the AC50 read?
A: 500 to 1000 nM

Q: With `Cc1c(-c2ncc(C(=O)N3CCc4[nH]cnc4[C@@H]3c3cc4c(F)cccn4n3)o2)cnn1C` [Example 2067, (R)-(2-(1,5-dimethyl-1H-pyrazol-4-yl)oxazol-5-yl)(4-(4-fluoropyrazolo[1,5-a]pyridin-2-yl)-1,4,6,7-tetrahydro-5H-imidazo[4,5-c]pyridin-5-yl)methanone] as the compound, how does the AC50 read?
A: > 5000 nM

Q: `O=C(c1nc2ccccc2o1)N1CCc2[nH]cnc2[C@H]1c1cc2ccccn2n1` [Example 2048, (S)-benzo[d]oxazol-2-yl(4-(pyrazolo[1,5-a]pyridin-2-yl)-1,4,6,7-tetrahydro-5H-imidazo[4,5-c]pyridin-5-yl)methanone] was tested. Which AC50 did it give?
A: 500 to 1000 nM

Q: How did the AC50 turn out when `Clc1cccn2nc([C@@H]3c4nc[nH]c4CCN3c3nnc(-c4cccnn4)o3)cc12` [Example 2198, (S)-2-(4-(4-chloropyrazolo[1,5-a]pyridin-2-yl)-1,4,6,7-tetrahydro-5H-imidazo[4,5-c]pyridin-5-yl)-5-(pyridazin-3-yl)-1,3,4-oxadiazole] was run?
A: 500 to 1000 nM

Q: Which AC50 does the source give for `Cn1cc(-c2nc(C3CC3)c(C(=O)N3CCc4[nH]cnc4[C@H]3c3cc4c(F)cccn4n3)o2)cn1` [Example 2073, (S)-(4-cyclopropyl-2-(1-methyl-1H-pyrazol-4-yl)oxazol-5-yl)(4-(4-fluoropyrazolo[1,5-a]pyridin-2-yl)-1,4,6,7-tetrahydro-5H-imidazo[4,5-c]pyridin-5-yl)methanone] here?
A: 500 to 1000 nM

same assay, conditions: A375 cells expressing human R408W PAH; 24 hrs compound incubation; 13C-Tyrosine by LC-MS; average where tested multiple times; read-out: AC50

Q: Which AC50 does the source give for `Cc1cccc(-c2nnc(C(=O)N3CCc4[nH]cnc4[C@H]3c3cc4c(F)cccn4n3)o2)n1` [Example 1470, (S)-(4-(4-fluoropyrazolo[1,5-a]pyridin-2-yl)-6,7-dihydro-1H-imidazo[4,5-c]pyridin-5(4H)-yl)(5-(6-methylpyridin-2-yl)-1,3,4-oxadiazol-2-yl)methanone] here?
A: < 500 nM

Q: Which AC50 does the source give for `O=C(c1nnc(C2CCC2)o1)N1CCc2[nH]cnc2[C@@H]1c1cc2c(C(F)F)cccn2n1` [Example 1521, (R)-(5-cyclobutyl-1,3,4-oxadiazol-2-yl)(4-(4-(difluoromethyl)pyrazolo[1,5-a]pyridin-2-yl)-6,7-dihydro-1H-imidazo[4,5-c]pyridin-5(4H)-yl)methanone] here?
A: 1000 to 5000 nM

Q: With `O=C(c1nnc(-c2ccn(C(F)(F)F)n2)o1)N1CCc2[nH]cnc2[C@@H]1c1cc2c(Cl)cccn2n1` [Example 1477, (R)-(4-(4-chloropyrazolo[1,5-a]pyridin-2-yl)-6,7-dihydro-1H-imidazo[4,5-c]pyridin-5(4H)-yl)(5-(1-(trifluoromethyl)-1H-pyrazol-3-yl)-1,3,4-oxadiazol-2-yl)methanone] as the compound, how does the AC50 read?
A: 1000 to 5000 nM

Q: How did the AC50 turn out when `CC(C)(F)c1nnc(C(=O)N2CCc3[nH]cnc3[C@@H]2c2cc3c(Cl)cccn3n2)o1` [Example 1108, (R)-(4-(4-chloropyrazolo[1,5-a]pyridin-2-yl)-6,7-dihydro-1H-imidazo[4,5-c]pyridin-5(4H)-yl)(5-(2-fluoropropan-2-yl)-1,3,4-oxadiazol-2-yl)methanone] was run?
A: > 5000 nM

Q: `Cn1ccc(-c2nnc(C(=O)N3CCc4[nH]cnc4[C@@H]3c3cc4c(Cl)cccn4n3)o2)n1` [Example 719, (R)-(4-(4-chloropyrazolo[1,5-a]pyridin-2-yl)-6,7-dihydro-1H-imidazo[4,5-c]pyridin-5(4H)-yl)(5-(1-methyl-1H-pyrazol-3-yl)-1,3,4-oxadiazol-2-yl)methanone] was tested. Which AC50 did it give?
A: > 5000 nM

Q: `Cn1ccc(-c2ccc3c(C(=O)N4CCc5[nH]cnc5[C@H]4c4cc5c(F)cccn5n4)cnn3c2)n1` [Example 1646, (S)-(4-(4-fluoropyrazolo[1,5-a]pyridin-2-yl)-6,7-dihydro-1H-imidazo[4,5-c]pyridin-5(4H)-yl)(6-(1-methyl-1H-pyrazol-3-yl)pyrazolo[1,5-a]pyridin-3-yl)methanone] was tested. Which AC50 did it give?
A: 500 to 1000 nM

Q: With `COc1ccc(-c2nnc(C(=O)N3CCc4[nH]cnc4[C@@H]3c3cc4cccc(C)n4n3)o2)nc1` [Example 911, (R)-(5-(5-methoxypyridin-2-yl)-1,3,4-oxadiazol-2-yl)(4-(7-methylpyrazolo[1,5-a]pyridin-2-yl)-6,7-dihydro-1H-imidazo[4,5-c]pyridin-5(4H)-yl)methanone] as the compound, how does the AC50 read?
A: > 5000 nM

Q: `Cn1nccc1C(=O)N1CCc2[nH]cnc2[C@H]1c1cc2ccccn2n1` [Example 660, (S)-(1-methyl-1H-pyrazol-5-yl)(4-(pyrazolo[1,5-a]pyridin-2-yl)-6,7-dihydro-1H-imidazo(4,5-c]pyridin-5(4H)-yl)methanone] was tested. Which AC50 did it give?
A: 500 to 1000 nM

Q: For `O=C(c1nnc(-c2ccc(F)c(F)c2)o1)N1CCc2[nH]cnc2[C@H]1c1cc2ccccn2n1` [Example 648, (S)-(5-(3,4-difluorophenyl)-1,3,4-oxadiazol-2-yl)(4-(pyrazolo[1,5-a]pyridin-2-yl)-6,7-dihydro-1H-imidazo[4,5-c]pyridin-5(4H)-yl)methanone], which AC50 is on record?
A: < 500 nM

Q: `O=C(c1nnc(-c2cnn(C(F)F)c2)o1)N1CCc2[nH]cnc2[C@H]1c1cc2c(OC(F)(F)F)cccn2n1` [Example 1782, (S)-(5-(1-(difluoromethyl)-1H-pyrazol-4-yl)-1,3,4-oxadiazol-2-yl)(4-(4-(trifluoromethoxy)pyrazolo[1,5-a]pyridin-2-yl)-6,7-dihydro-1H-imidazo[4,5-c]pyridin-5(4H)-yl)methanone] was tested. Which AC50 did it give?
A: 500 to 1000 nM

Q: Which AC50 does the source give for `Cc1cccn2nc([C@@H]3c4nc[nH]c4CCN3C(=O)c3nnc(C4CCC4)o3)cc12` [Example 1556, (S)-(5-cyclobutyl-1,3,4-oxadiazol-2-yl)(4-(4-methylpyrazolo[1,5-a]pyridin-2-yl)-6,7-dihydro-1H-imidazo[4,5-c]pyridin-5(4H)-yl)methanone] here?
A: < 500 nM

Q: `c1cnc(N2CCc3[nH]cnc3[C@@H]2c2cc3ccccn3n2)nc1` [Example 1593, (R)-4-(pyrazolo[1,5-a]pyridin-2-yl)-5-(pyrimidin-2-yl)-4,5,6,7-tetrahydro-1H-imidazo[4,5-c]pyridine] was tested. Which AC50 did it give?
A: 1000 to 5000 nM

Q: Which AC50 does the source give for `O=C(c1nnc(-c2ncccn2)o1)N1CCc2[nH]cnc2[C@H]1c1cc2c(C(F)(F)F)cccn2n1` [Example 1381, (S)-(5-(pyrimidin-2-yl)-1,3,4-oxadiazol-2-yl)(4-(4-(trifluoromethyl)pyrazolo[1,5-a]pyridin-2-yl)-6,7-dihydro-1H-imidazo[4,5-c]pyridin-5(4H)-yl)methanone] here?
A: 500 to 1000 nM

Q: Which AC50 does the source give for `O=C(c1cn(-c2ccccn2)nc1Cl)N1CCc2[nH]cnc2[C@H]1c1cc2ccccn2n1` [Example 674, (S)-(3-chloro-1-(pyridin-2-yl)-1H-pyrazol-4-yl)(4-(pyrazolo[1,5-a]pyridin-2-yl)-6,7-dihydro-1H-imidazo[4,5-c]pyridin-5(4H)-yl)methanone] here?
A: 1000 to 5000 nM

Q: For `O=C(c1nnc(C2CC2)o1)N1CCc2[nH]cnc2[C@H]1c1cc2cccc(C(F)(F)F)n2n1` [Example 1140, (S)-(5-cyclopropyl-1,3,4-oxadiazol-2-yl)(4-(7-(trifluoromethyl)pyrazolo[1,5-a]pyridin-2-yl)-6,7-dihydro-1H-imidazo[4,5-c]pyridin-5(4H)-yl)methanone], which AC50 is on record?
A: 500 to 1000 nM

Q: With `CC(C)(O)c1nc(Br)c(C(=O)N2CCc3[nH]cnc3[C@H]2c2cc3ccccn3n2)o1` [Example 676, (S)-(4-bromo-2-(2-hydroxypropan-2-yl)oxazol-5-yl)(4-(pyrazolo[1,5-a]pyridin-2-yl)-6,7-dihydro-1H-imidazo[4,5-c]pyridin-5(4H)-yl)methanone] as the compound, how does the AC50 read?
A: < 500 nM
